Laboratory results from patent publication US20160215348A1, “GENE EXPRESSION BIOMARKERS AND THEIR USE FOR DIAGNOSTIC AND PROGNOSTIC APPLICATION IN PATIENTS POTENTIALLY IN NEED OF HDAC INHIBITOR TREATMENT” (4SC AG, priority 2013, published 2016).

Legend:
ZFP64 [1] = assay: ZFP64 fold change in HepG2, whole blood and PBMCs of a healthy donor (FIG. 4d); format: cell-based, human; settings: HepG2, whole blood, PBMC; resminostat 5 μM (combination: + sorafenib 5 μM); vs DMSO control
Description: For comparison reasons, the siRNA experiment (ZFP64 knockdown) on HepG2 cells is shown. The samples are compared to a DMSO control and the fold change is determined with the exception of the siRNA samples, which are compared to the resminostat sample.
To determine RNA expression levels of ZFP64 in different cancer cell lines and PBMC, the cell membranes were chemically disrupted with a buffer containing guanidine isothiocycanate, which lyses the cells and supports the binding of RNA to a silica membrane and RNA was extracted via a filter-based spin column.

TBP = assay: qPCR relative expression (vs cycle 1, day 1, hour 0) in patients' whole blood; format: in vivo, human
Description: (§1) 2.5 ml whole blood from patients was collected in PAXgene™ tubes (BD Biosciences) that contain chemicals to lyse the erythrocytes, stabilize RNA from degradation by RNases and minimize ex vivo changes in gene expression. The samples were incubated at 20° C. to 25° C. for 2 hours and then frozen at −20° C. until purification of total RNA.
(§2) Total RNA was isolated from the whole blood samples stabilized in PAXgene™ buffer using a spin column based technique suitable for whole blood samples (like PAXgene™ Blood miRNA Kit or PAXgene™ Blood RNA Kit from Qiagen) according to the manufacturer's instructions. The purification began with a centrifugation step to pellet nucleic acids in the (PAXgene™ Blood RNA) tube. The resuspended pellet was incubated in buffers, optimized for maintenance of RNA stability together with proteinase K to bring about protein digestion. An additional centrifugation through the PAXgene™ Shredder spin column was carried out to homogenize the cell lysate and remove residual cell debris, and the supernatant of the flow-through fraction was transferred to a fresh microcentrifuge tube. Ethanol was added to adjust binding conditions, and the lysate was applied to a PAXgene™ RNA spin column. During a brief centrifugation, RNA was selectively bound to the PAXgene™ silica membrane as contaminants pass through. Remaining contaminants were removed in several efficient wash steps. Between the first and second wash steps, the membrane was treated with DNase I, as described herein below in 1.3 to remove trace amounts of bound DNA. After the wash steps, RNA was eluted in nuclease free water and heat-denatured.
(§3) The High-Capacity cDNA Reverse Transcription Kit (Applied Biosystems) was used for reverse transcription of total RNA into single stranded cDNA with the aid of random hexamer primers according to the manufacturer's instructions. Briefly, for the reaction mix total RNA was mixed with random primers in excess, 4 mM dNTP Mix, 2.5 U/reaction, reverse transcriptase and nuclease free water. The reverse transcription took place in a thermal cycler under the following conditions: 25° C. for 10 min, 37° C. for 120 min, 85° C. for 5 min, followed by 4° C. for cooling down the reaction. The reverse transcription can be done in principle as well with other reverse transcriptases, primers and temperature protocols. Whenever possible, 250 ng total RNA were reverse transcribed if not available, lower amounts were used.
(§4) Custom TaqMan® Arrays (Applied Biosystems) in Format 16 were designed for the gene expression analysis of biomarkers of the present invention and housekeeping genes as outlined in table 4. These arrays allow for qPCR analysis of 8 samples per card. Of course, all reactions can be done as well by conventional qPCR analysis with specific primers.
(§5) The reaction mix was transferred into the reaction chambers by centrifuging twice for 1 minute each at 330 g and 4° C. After sealing, the microfluidic cards were run on an AB7900HT instrument (Applied Biosystems). The software SDS 2.4 (Applied Biosystems) was employed for instrument control, data acquisition and raw data analysis. The plates were run in Relative Quantification (ΔΔCt) mode, and the following temperature profile was used:
(§6) This analysis was carried out for each patient separately. The first sample (cycle 1, day 1, hour 0) was used as the reference sample. The ‘exprs’ value indicates relative expression levels (fold change values) for individual samples.
(§7) Table 5 contains the median expression level values for treatment day 5 (cycle 1, day 5, hours 0, 2, and 5) at a daily dose of 600 mg or 800 mg Resminostat mesylate salt is given below.

ZFP64 [2] = assay: as above; format: in vivo, human
Description: as §1, §2, §3, §4, §5, §6, §7

DPP3 = assay: as above; format: in vivo, human
Description: as §1, §2, §3, §4, §5, §6, §7

CCDC43 = assay: as above; format: in vivo, human
Description: as §1, §2, §3, §4, §5, §6, §7

GAPDH = assay: as above; format: in vivo, human
Description: as §1, §2, §3, §4, §5, §6, §7

MICALL1 = assay: as above; format: in vivo, human
Description: as §1, §2, §3, §4, §5, §6, §7

KDELC2 = assay: as above; format: in vivo, human
Description: as §1, §2, §3, §4, §5, §6, §7

18S = assay: as above; format: in vivo, human
Description: as §1, §2, §3, §4, §5, §6, §7

HIST2H4A; HIST2H4B = assay: as above; format: in vivo, human
Description: as §1, §2, §3, §4, §5, §6, §7

[3] = cycle 1, day 5, hour 0, 600 mg dose
[4] = cycle 1, day 5, hour 0, 800 mg dose
[5] = cycle 1, day 5, hour 2, 600 mg dose
[6] = cycle 1, day 5, hour 2, 800 mg dose
[7] = cycle 1, day 5, hour 5, 600 mg dose
[8] = cycle 1, day 5, hour 5, 800 mg dose

Structure (SMILES): CN(C)Cc1ccc(S(=O)(=O)n2ccc(/C=C/C(=O)NO)c2)cc1 [resminostat, (E)-3-(1-(4-((dimethylamino)methyl)phenylsulfonyl)-1H-pyrrol-3-yl)-N-hydroxyacrylamide]
- Regulation of ZFP64, fold change (FIG. 4d) (ZFP64 [1]): down-regulation
- Median expression level, TBP (TBP; [3]): 0.991
- Median expression level, TBP (TBP; [4]): 1.305
- Median expression level, TBP (TBP; [5]): 0.994
- Median expression level, TBP (TBP; [6]): 1.071
- Median expression level, TBP (TBP; [7]): 1.052
- Median expression level, TBP (TBP; [8]): 1.286
- ZFP64 expression in cancer patients (FIG. 4b) (ZFP64 [2]; blood cells of HCC and HL patients, 600 or 800 mg daily, Day 1 and Day 5): down-regulates
- Median expression level, ZFP64 (ZFP64 [2]; [3]): 0.980
- Median expression level, ZFP64 (ZFP64 [2]; [4]): 1.280
- Median expression level, ZFP64 (ZFP64 [2]; [5]): 0.412
- Median expression level, ZFP64 (ZFP64 [2]; [6]): 0.356
- Median expression level, ZFP64 (ZFP64 [2]; [7]): 0.228
- Median expression level, ZFP64 (ZFP64 [2]; [8]): 0.188
- Median expression level, DPP3 (DPP3; [3]): 1.121
- Median expression level, DPP3 (DPP3; [4]): 1.457
- Median expression level, DPP3 (DPP3; [5]): 0.767
- Median expression level, DPP3 (DPP3; [6]): 0.912
- Median expression level, DPP3 (DPP3; [7]): 0.267
- Median expression level, DPP3 (DPP3; [8]): 0.395
- Median expression level, CCDC43 (CCDC43; [3]): 0.917
- Median expression level, CCDC43 (CCDC43; [4]): 1.391
- Median expression level, CCDC43 (CCDC43; [5]): 0.318
- Median expression level, CCDC43 (CCDC43; [6]): 0.329
- Median expression level, CCDC43 (CCDC43; [7]): 0.378
- Median expression level, CCDC43 (CCDC43; [8]): 0.319
- Median expression level, GAPDH (GAPDH; [3]): 1.092
- Median expression level, GAPDH (GAPDH; [4]): 1.136
- Median expression level, GAPDH (GAPDH; [5]): 1.201
- Median expression level, GAPDH (GAPDH; [6]): 1.362
- Median expression level, GAPDH (GAPDH; [7]): 1.296
- Median expression level, GAPDH (GAPDH; [8]): 1.228
- Median expression level, MICALL1 (MICALL1; [3]): 0.981
- Median expression level, MICALL1 (MICALL1; [4]): 1.024
- Median expression level, MICALL1 (MICALL1; [5]): 0.395
- Median expression level, MICALL1 (MICALL1; [6]): 0.407
- Median expression level, MICALL1 (MICALL1; [7]): 0.201
- Median expression level, MICALL1 (MICALL1; [8]): 0.163
- Median expression level, KDELC2 (KDELC2; [3]): 0.909
- Median expression level, KDELC2 (KDELC2; [4]): 1.141
- Median expression level, KDELC2 (KDELC2; [5]): 0.544
- Median expression level, KDELC2 (KDELC2; [6]): 0.509
- Median expression level, KDELC2 (KDELC2; [7]): 0.215
- Median expression level, KDELC2 (KDELC2; [8]): 0.215
- Median expression level, 18S (18S; [3]): 0.872
- Median expression level, 18S (18S; [4]): 0.635
- Median expression level, 18S (18S; [5]): 0.871
- Median expression level, 18S (18S; [6]): 0.682
- Median expression level, 18S (18S; [7]): 0.778
- Median expression level, 18S (18S; [8]): 0.550
- Median expression level, HIST2H4A; HIST2H4B (HIST2H4A; HIST2H4B; [3]): 0.875
- Median expression level, HIST2H4A; HIST2H4B (HIST2H4A; HIST2H4B; [4]): 1.530
- Median expression level, HIST2H4A; HIST2H4B (HIST2H4A; HIST2H4B; [5]): 2.111
- Median expression level, HIST2H4A; HIST2H4B (HIST2H4A; HIST2H4B; [6]): 3.345
- Median expression level, HIST2H4A; HIST2H4B (HIST2H4A; HIST2H4B; [7]): 2.042
- Median expression level, HIST2H4A; HIST2H4B (HIST2H4A; HIST2H4B; [8]): 2.821
